One may read the IC50 as the midpoint of a concentration-inhibition curve. As a reminder, the AC50 is the midpoint of the concentration-response curve, whichever way the signal moves. Broadly, the EC50 is the concentration needed to bring the measured effect to its halfway point.

These results are taken from ChEMBL document CHEMBL1201862, “PubChem BioAssay data set” (2004).

One test addresses Bcl-2-like protein 10 (Homo sapiens, UniProt Q9HD36). Put plainly: displacers of TR3 peptide from Bcl-B, primary screen, selectivity assay for Bfl-1 inhibitor project, biochemical, fluorescence polarization, FITC-TR3 peptide (AID 748).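 Further: fluorescence polarization from a fluorescein-labelled TR3 peptide binding purified Bcl-B.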
For a further test, the target named is Estrogen receptor beta (Homo sapiens, UniProt Q92731). Put plainly: ERβ–SRC-3 coactivator interaction inhibitors, confirmation, orthogonal assay, biochemical, ELISA, streptavidin-HRP readout (AID 1060).
Estrogen receptor beta, sequence (Q92731 whole entry): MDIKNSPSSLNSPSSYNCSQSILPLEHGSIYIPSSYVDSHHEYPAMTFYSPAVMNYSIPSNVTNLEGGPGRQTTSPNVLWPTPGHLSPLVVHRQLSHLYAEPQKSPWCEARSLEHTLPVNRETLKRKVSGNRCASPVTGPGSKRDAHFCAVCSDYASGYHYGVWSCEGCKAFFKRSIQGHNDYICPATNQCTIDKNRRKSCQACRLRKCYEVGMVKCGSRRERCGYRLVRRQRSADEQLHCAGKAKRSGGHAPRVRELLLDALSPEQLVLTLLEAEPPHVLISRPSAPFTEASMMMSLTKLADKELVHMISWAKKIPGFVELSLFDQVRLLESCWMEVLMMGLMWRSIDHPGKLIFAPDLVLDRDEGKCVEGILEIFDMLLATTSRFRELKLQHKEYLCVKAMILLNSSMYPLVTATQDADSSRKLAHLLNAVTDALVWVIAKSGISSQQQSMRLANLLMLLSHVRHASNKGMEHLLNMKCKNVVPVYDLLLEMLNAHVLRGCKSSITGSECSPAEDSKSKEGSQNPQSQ
The nature of test [1]: Shn3 3'UTR reporter inhibitors, dose response, cell-based, Clone20 osteoblasts, firefly luciferase, cherry-picked (AID 624132).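 Further: firefly luciferase luminescence from reporter carrying the Shn3 3'UTR in osteoblasts.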 In kind it is functional.
The next test has as its target T1, Estrogen receptor (Homo sapiens, UniProt P03372).
T1 sequence (P03372 whole entry): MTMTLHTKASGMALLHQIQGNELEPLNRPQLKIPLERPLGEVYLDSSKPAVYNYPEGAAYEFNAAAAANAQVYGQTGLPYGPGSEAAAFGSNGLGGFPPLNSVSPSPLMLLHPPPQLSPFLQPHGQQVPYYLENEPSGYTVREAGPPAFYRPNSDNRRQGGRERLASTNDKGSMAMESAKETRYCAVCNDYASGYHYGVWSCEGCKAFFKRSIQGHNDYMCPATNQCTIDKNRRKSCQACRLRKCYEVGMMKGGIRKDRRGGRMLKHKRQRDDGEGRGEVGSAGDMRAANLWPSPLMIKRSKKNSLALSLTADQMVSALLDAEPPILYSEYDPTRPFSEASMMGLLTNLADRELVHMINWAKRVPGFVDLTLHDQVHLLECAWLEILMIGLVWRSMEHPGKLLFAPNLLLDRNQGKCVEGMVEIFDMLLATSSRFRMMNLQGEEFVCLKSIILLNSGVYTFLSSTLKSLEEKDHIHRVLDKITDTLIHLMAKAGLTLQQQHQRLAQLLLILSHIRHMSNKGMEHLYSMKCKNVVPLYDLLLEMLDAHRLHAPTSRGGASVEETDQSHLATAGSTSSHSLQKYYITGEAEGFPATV

Test [2] addresses T2, Scavenger receptor class B member 1 (Mus musculus, UniProt Q61009).
T2 sequence (Q61009 whole entry): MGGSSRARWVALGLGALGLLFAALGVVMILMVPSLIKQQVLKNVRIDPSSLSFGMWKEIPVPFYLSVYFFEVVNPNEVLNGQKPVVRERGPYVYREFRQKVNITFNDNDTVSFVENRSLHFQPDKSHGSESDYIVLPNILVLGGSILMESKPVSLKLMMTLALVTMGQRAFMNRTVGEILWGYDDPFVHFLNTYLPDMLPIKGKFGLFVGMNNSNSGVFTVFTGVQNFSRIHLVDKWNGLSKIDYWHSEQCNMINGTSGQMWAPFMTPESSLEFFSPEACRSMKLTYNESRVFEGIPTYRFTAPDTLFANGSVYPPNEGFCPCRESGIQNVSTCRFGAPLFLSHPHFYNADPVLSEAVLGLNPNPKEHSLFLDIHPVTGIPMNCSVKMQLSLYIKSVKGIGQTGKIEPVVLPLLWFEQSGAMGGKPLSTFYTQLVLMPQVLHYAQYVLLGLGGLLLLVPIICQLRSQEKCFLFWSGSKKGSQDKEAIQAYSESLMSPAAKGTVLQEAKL
The test is described as follows: inhibitors of SR-BI mediated HDL lipid uptake, dose response, ldlA[mSR-BI] cells, fluorescence, cherry pick (AID 493194).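 Further: cellular uptake of fluorescent DiI-labeled HDL measured as cell fluorescence.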 In kind it is functional, cell-based.

Test [3] can be described thus: control 3'UTR Renilla luciferase suppression, dose response, counter-screen for Shn3 inhibitor project, cell-based, Clone20-Shn3RL, cherry-picked (AID 624133). In kind it is functional.
Test [4] can be described thus: Luminescence Cell-Based Dose Response HTS to Identify Inhibitors of 5'UTR Stem-Loop Driven Prion Protein mRNA Translation in H4 Neuroglioblastoma Cells. [Related pubchem assays: 1827 (Project Summary), 1813 (Primary HTS)]. In kind it is functional.
The target of test [5] is T3, Heat shock factor protein 1 (Mus musculus, UniProt P38532).
T3 sequence (P38532 whole entry): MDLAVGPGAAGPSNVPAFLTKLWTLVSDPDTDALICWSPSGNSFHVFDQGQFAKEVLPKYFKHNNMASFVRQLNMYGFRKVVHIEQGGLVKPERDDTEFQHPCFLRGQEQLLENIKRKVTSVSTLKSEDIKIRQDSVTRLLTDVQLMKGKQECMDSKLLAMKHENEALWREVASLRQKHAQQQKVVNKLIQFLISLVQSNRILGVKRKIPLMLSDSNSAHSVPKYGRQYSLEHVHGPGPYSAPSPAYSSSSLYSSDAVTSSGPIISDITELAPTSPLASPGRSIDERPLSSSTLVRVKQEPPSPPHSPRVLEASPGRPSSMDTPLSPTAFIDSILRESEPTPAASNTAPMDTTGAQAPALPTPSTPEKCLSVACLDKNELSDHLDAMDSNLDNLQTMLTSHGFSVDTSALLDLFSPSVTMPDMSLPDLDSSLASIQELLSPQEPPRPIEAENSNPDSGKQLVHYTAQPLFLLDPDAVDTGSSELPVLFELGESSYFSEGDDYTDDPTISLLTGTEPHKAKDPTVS
The test is described as follows: inhibition of MG132-induced HSE-luciferase signal, confirmation, cell-based, NIH3T3, luminescence, dose retest (AID 2382).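 Further: NIH3T3 fibroblasts with HSF1-driven luciferase reporter stressed by proteasome inhibitor MG132; luminescence from HSF1-driven luciferase expression after 8 hours of MG132 stress.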 In kind it is functional.

The nature of test [6]: inhibitors of firefly luciferase expression or activity, dose response, H4 neuroglioma cells, luminescence (AID 1990). In kind it is functional, cell-based.
Test [7] can be described thus: inhibitors of SNCA 5'UTR-driven reporter translation, confirmation, H4 neuroglioma cells, luminescence (AID 1988). In kind it is functional, cell-based.
A short description of test [8]: HepG2 cell cytotoxicity, dose response, cytotoxicity control for Shn3 inhibitor project, CellTiter-Glo, cherry-picked (AID 624134). In kind it is functional, cell-based.
For a further test, the target named is Protein Rev (Human immunodeficiency virus type 1 group M subtype B (isolate HXB2)(HIV-1), UniProt P04618). Put plainly: inhibitors of Rev binding to RRE RNA, dose response, biochemical, fluorescence polarization, HIV-1 (AID 434976). Further details: species or system Human immunodeficiency virus 1. (In general: Fluorescence polarisation rises when a labelled molecule tumbles more slowly, as on binding a larger partner.)
Protein Rev, sequence (P04618 whole entry): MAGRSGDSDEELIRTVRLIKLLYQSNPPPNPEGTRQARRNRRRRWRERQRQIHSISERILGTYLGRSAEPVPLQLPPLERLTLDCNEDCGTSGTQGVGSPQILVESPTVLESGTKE

Test [9] deals with Female germline-specific tumor suppressor gld-1 (Caenorhabditis elegans, UniProt Q17339). The test is described as follows: inhibitors of GLD-1 binding to TGE RNA, dose response, biochemical, fluorescence polarization, C. elegans (AID 2802).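 Further: fluorescence polarization of labeled TGE RNA bound by purified gld-1 protein.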
Female germline-specific tumor suppressor gld-1, sequence (Q17339 whole entry): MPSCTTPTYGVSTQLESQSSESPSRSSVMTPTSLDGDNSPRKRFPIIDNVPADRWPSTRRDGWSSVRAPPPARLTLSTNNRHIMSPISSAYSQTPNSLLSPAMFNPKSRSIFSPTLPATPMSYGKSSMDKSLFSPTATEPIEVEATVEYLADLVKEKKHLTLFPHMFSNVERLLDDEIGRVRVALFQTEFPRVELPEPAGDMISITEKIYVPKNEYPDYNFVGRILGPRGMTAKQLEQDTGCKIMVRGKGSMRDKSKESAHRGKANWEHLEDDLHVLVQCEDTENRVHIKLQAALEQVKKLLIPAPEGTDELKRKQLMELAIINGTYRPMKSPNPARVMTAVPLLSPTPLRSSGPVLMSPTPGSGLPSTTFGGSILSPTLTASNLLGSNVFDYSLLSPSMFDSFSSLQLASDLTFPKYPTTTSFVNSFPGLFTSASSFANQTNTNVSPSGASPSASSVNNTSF
In test [10] the target is T4, RNA-binding protein pos-1 (Caenorhabditis elegans, UniProt G5EF15).
T4 sequence (G5EF15 whole entry): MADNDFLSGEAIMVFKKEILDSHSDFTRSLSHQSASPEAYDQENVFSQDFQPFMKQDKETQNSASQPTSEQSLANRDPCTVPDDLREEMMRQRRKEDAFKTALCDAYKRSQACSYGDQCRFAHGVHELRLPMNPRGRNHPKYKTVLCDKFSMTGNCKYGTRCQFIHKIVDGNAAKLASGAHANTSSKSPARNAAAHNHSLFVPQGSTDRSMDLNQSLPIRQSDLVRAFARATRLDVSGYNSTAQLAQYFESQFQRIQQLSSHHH
Put plainly: inhibitors of POS-1/mex-3 RNA binding, dose response, biochemical, fluorescence polarization (AID 1964).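 Further: purified POS-1 fused to maltose binding protein made in E. coli; potency of compounds blocking POS-1 binding to fluorescent RNA.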

For test [11], the target named is T5, Zinc finger protein mex-5 (Caenorhabditis elegans, UniProt Q9XUB2).
T5 sequence (Q9XUB2 whole entry): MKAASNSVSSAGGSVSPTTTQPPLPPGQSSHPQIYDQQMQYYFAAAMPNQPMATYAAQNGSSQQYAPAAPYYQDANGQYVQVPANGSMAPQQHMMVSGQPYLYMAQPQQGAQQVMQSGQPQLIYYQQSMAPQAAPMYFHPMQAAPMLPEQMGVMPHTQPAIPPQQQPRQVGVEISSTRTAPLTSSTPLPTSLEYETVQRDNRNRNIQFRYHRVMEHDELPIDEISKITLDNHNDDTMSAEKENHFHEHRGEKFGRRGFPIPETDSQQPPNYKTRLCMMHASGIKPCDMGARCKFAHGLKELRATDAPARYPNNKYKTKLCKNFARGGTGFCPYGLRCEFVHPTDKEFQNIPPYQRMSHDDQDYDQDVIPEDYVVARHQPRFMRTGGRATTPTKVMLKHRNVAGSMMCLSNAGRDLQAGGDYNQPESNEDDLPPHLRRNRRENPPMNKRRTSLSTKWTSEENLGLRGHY
Put plainly: MEX-5/TCR-2 RNA interaction inhibitors, dose response, biochemical, C. elegans, fluorescence polarization (AID 1960).

Each structure is given as a SMILES string. Active and inactive are the calls of the source.

Bcl-2-like protein 10, sequence (Q9HD36 whole entry): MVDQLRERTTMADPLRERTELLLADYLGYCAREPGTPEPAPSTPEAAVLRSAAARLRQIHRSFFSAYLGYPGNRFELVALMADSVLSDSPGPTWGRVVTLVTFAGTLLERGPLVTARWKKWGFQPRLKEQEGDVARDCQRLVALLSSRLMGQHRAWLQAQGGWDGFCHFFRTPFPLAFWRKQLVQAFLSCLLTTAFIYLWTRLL

As for `Cc1cc(C)n2nc(C(=O)OCC(=O)c3cc(C)n(C)c3C)nc2n1`, the figures for the IC50 on Bcl-2-like protein 10 and against Estrogen receptor beta were 24.4 µM (active) and > 50 µM (not active), respectively.
Take `CCOc1cc(N2CCOCC2)c(OCC)cc1NC(=O)c1cc(-c2ccco2)nc2ccccc12`: the AC50 is 8.94 µM (active) in test [1], 46.2 µM (active) in [2], 9.78 µM (active) in test [3] and 53.5 µM (active) in test [8]. Also, at Estrogen receptor, the IC50 is 14.7 µM (active). For the same compound, the EC50 in test [4] was > 120 µM (not active); in test [5] it was 1.21 µM (active); in test [6] it was > 120 µM (not active); in test [7], 7.84 µM (active).
With `CCCn1c(N)c(N(CCOC)C(=O)Cc2ccc(S(=O)(=O)N3CCOCC3)s2)c(=O)[nH]c1=O`, the half-maximal inhibitory concentration (IC50) at Protein Rev was 39.6 µM (not active); in test [9], 16.2 µM (inactive). The concentration for a half-maximal effect (EC50) in [10] and in test [11] was > 300 µM (not active) in each case.
